Earlier results on 1 compound are cited in patent US12569628B2, “Delivery of medicinal gas in a liquid medium” (Third Pole, Inc., priority 2022, dated 2026).

One data set deals with immune system. Conditions: low concentrations.

Each structure is given as a SMILES string. Like-named read-outs stand apart in the source and are kept apart here.

For the compound `[N]=O` [NO, nitric oxide], the “Henry's law constant kH” value is given as “approximately 6.65×10^−5 mol/m^3 Pa” (NO in alcohol) and 1.9×10^−5 mol/m^3 Pa (NO in water). Further, the “concentration at which NO stimulates the immune system” value in the data set with immune system was 10^−12 to 10^−9 M.
